According to patent US9321768B2, “Indoles as respiratory syncytial virus antiviral agents” (JANSSEN SCIENCES IRELAND UC, priority 2010, dated 2016):
pEC50: −log10 of the molar value. Read-outs that look alike come from different tables or passages of the source.

How the values were obtained:
rgRSV224 virus = experiment: microbe, parasite or virus in culture; format: cell-based, respiratory syncytial virus (RSV); settings: for pEC50: read-out: WT activity EC50; for SI CC50/EC50: ratio of HeLa CC50 to rgRSV224 EC50
Method: (§1) Black 96-well clear-bottom microtiter plates (Corning, Amsterdam, The Netherlands) were filled in duplicate using a customized robot system with serial 4-fold dilutions of compound in a final volume of 50 μl culture medium [RPMI medium without phenol red, 10% FBS, 0.04% gentamycin (50 mg/ml) and 0.5% DMSO]. Then, 100 μl of a HeLa cell suspension (5×10^4 cells/ml) in culture medium was added to each well followed by the addition of 50 μl rgRSV224 (MOI=0.02) virus in culture medium using a multidrop dispenser (Thermo Scientific, Erembodegem, Belgium). rgRSV224 virus is an engineered virus that includes an additional GFP gene (Hallak et al, 2000) and was in-licensed from the NIH (Bethesda, Md., USA). Medium, virus- and mockinfected controls were included in each test. Cells were incubated at 37° C. in a 5% CO2 atmosphere. Three days post-virus exposure, viral replication was quantified by measuring GFP expression in the cells by a MSM laser microscope (Tibotec, Beerse, Belgium). The EC50 was defined as the 50% inhibitory concentration for GFP expression. In parallel, compounds were incubated for three days in a set of white 96-well microtitier plates (Corning) and the cytotoxicity of compounds in HeLa cells was determined by measuring the ATP content of the cells using the ATPlite kit (PerkinElmer, Zaventem, Belgium) according to the manufacturer's instructions. The CC50 was defined as the 50% concentration for cytotoxicity.

[1] = Cytotoxicity in HeLa cells, ATP content (ATPlite kit); format: cell-based; settings: human
Method: as §1

[2] = human respiratory syncytial virus, HeLa, 72 h
[3] = HeLa cells, three days incubation, ATP content, read-out: Toxicity CC50
[4] = rgRSV224 (MOI=0.02) in HeLa cells, GFP expression three days post-virus exposure

| SMILES | pEC50 (rgRSV224 virus; [2]) | CC50 at 3 days [1, 3] | CC50 at 3 days [1] | SI CC50/EC50 (rgRSV224 virus) | pEC50 (rgRSV224 virus; [4]) |
| --- | --- | --- | --- | --- | --- |
| CC(C)CCn1c(Cn2c(=O)n(C3CC3)c3ccncc32)c(C(=O)NS(C)(=O)=O)c2ccccc21 [Compound 19, 2-((1-cyclopropyl-2-oxo-1H-imidazo[4,5-c]pyridin-3 (2H)-yl)methyl)-1-isopentyl-N-(methylsulfonyl)-1H-indole-3-carboxamide] | 5.49 | > 9840 nM | – | – | – |
| COc1ccc2c(c1)cc(Cn1c(=O)n(C3CC3)c3ccncc31)n2CCCCO [Compound 10, 1-Cyclopropyl-3-((1-(4-hydroxybutyl)-5-methoxy-1H-indol-2-yl)methyl)-1H-imidazo[4,5-c]pyridin-2(3H)-one] | 7.42 | – | > 9840 nM | – | – |
| O=c1n(Cc2cc3cc(Cl)ccc3n2CCCCF)c2cnccc2n1C1CC1 [Compound P30] | – | – | – | 24457 | 9.13 |
| NC(=O)c1c(Cn2c(=O)n(C3CC3)c3ccncc32)n(CCCCF)c2ccc(Cl)cc12 [Compound P54, 5-chloro-2-((1-cyclopropyl-2-oxo-1H-imidazo[4,5-c]pyridin-3(2H)-yl)methyl)-1-(4-fluorobutyl)-1H-indole-3-carboxamide] | 10.28 | – | – | >603587 | – |
| O=c1n(Cc2c(I)c3ccc(Cl)cc3n2CCCCO)c2cnccc2n1C1CC1 [Compound 15, 3-((6-Chloro-1-(4-hydroxybutyl)-3-iodo-1H-indol-2-yl)methyl)-1-cyclopropyl-1H-imidazo[4,5-c]pyridin-2(3H)-one] | 7.12 | – | > 9840 nM | – | – |
| COc1ccc2c(c1)n(Cc1cc3cc(F)ccc3n1CCCS(C)(=O)=O)c(=O)n2C1CC1 [Compound P41] | – | – | – | 886 | 7.20 |
| CS(=O)(=O)CCCn1c(Cn2c(=O)n(C3COC3)c3ccncc32)cc2cc(F)ccc21 [Compound P22] | – | – | – | >4200 | 7.62 |
| CS(=O)(=O)CCCn1c(Cn2c(=O)n(C3CC3)c3ccc(F)cc32)cc2cc(F)ccc21 [Compound P27] | – | – | – | 664 | 7.44 |
| N#CCCCCn1c(Cn2c(=O)n(C3CC3)c3ccncc32)cc2cc(Br)ccc21 [Compound 3, 5-((5-bromo-2-(1-cyclopropyl-2-oxo-1H-imidazo[4,5-c]pyridin-3(2H)-yl)methyl)-1H-indol-1-yl)pentanenitrile] | 9.34 | – | > 9840 nM | – | – |
| CCOC(=O)c1c(Cn2c(=O)n(C3CC3)c3ccncc32)n(CCC(C)C)c2ccccc12 [Compound 18, ethyl 2-((1-cyclopropyl-2-oxo-1H-imidazo[4,5-c]pyridin-3(2H)-yl)methyl)-1-isopentyl-1H-indole-3-carboxylate] | 5.52 | 32100 nM | – | – | – |
| CC(C)(O)CCCn1c(Cn2c(=O)n(C3COC3)c3ccncc32)cc2cc(Cl)ccc21 [Compound P73] | – | – | – | 15070 | 8.50 |
| CC(C)(O)CCCn1c(Cn2c(=O)n(C3CC3)c3ccncc32)cc2cc(Cl)ccc21 [Compound P72] | – | – | – | 24273 | 8.80 |
| O=c1n(Cc2cc3cc(Br)ccc3n2CCCC(F)(F)F)c2cnccc2n1C1CC1 [Compound P32] | – | – | – | 53514 | 9.47 |
| O=c1n(Cc2cc3cc(Br)ccc3n2CCCC(F)(F)F)c2ccccc2n1C1CC1 [Compound P31] | – | – | – | 3446 | 7.92 |
| CC(C)CCn1c(Cn2c(=O)n(C3CC3)c3ccncc32)cc2ccccc21 [Compound 12, 1-cyclopropyl-3-((1-isopentyl-1H-indol-2-yl)methyl)-1H-imidazo[4,5-c]pyridin-2(3H)-one] | 6.44 | – | 65500 nM | – | – |
| O=c1n(Cc2cc3cc(Cl)ccc3n2CCCCO)c2cnccc2n1C1CC1 [Compound 7, 3-((5-Chloro-1-(4-hydroxybutyl)-1H-indol-2-yl)methyl)-1-cyclopropyl-1H-imidazo[4,5-c]pyridin-2(3H)-one] | 8.65 | – | 47600 nM | – | – |
| CNC(=O)c1c(Cn2c(=O)n(C3CC3)c3ccncc32)n(CCCC(F)(F)F)c2ccc(Cl)cc12 [Compound P64] | – | – | – | >3896 | 8.19 |
| CS(=O)(=O)CCCn1c(Cn2c(=O)n(C3CC3)c3ccc(F)cc32)cc2cc(Br)ccc21 [Compound 6, 3-((5-Bromo-1-(3-(methylsulfonyl)propyl)-1H-indol-2-yl)methyl)-1-cyclopropyl-5-fluoro-1H-benzo[d]imidazol-2(3H)-one] | 8.79 | – | > 9840 nM | – | – |
| N#CCCCn1c(Cn2c(=O)n(CC(F)(F)F)c3ccncc32)cc2cc(Cl)ccc21 [Compound P62] | – | – | – | 81459 | 9.27 |
| CC(C)CCn1c(Cn2c(=O)n(C3CC3)c3ccncc32)c(C(N)=O)c2ccccc21 [Compound 14, 2-((1-cyclopropyl-2-oxo-1H-imidazo[4,5-c]pyridin-3(2H)-yl)methyl)-1-isopentyl-1H-indole-3-carboxamide] | 8.35 | > 24600 nM | – | – | – |
| CS(=O)(=O)CCCn1c(Cn2c(=O)n(C3COC3)c3ccncc32)cc2cc(Br)ccc21 [Compound 5, 3-((5-Bromo-1-(3-(methylsulfonyl)propyl)-1H-indol-2-yl)methyl)-1-(oxetan-3-yl)-1H-imidazo[4,5-c]pyridin-2(3H)-one] | 8.81 | – | > 9840 nM | – | – |
| CS(=O)(=O)CCCn1c(Cn2c(=O)n(C3CC3)c3ccccc32)cc2cc(F)ccc21 [Compound P26] | – | – | – | 2270 | 7.65 |

| SMILES | pEC50 (rgRSV224 virus; [2]) | CC50 at 3 days [1, 3] | CC50 at 3 days [1] | SI CC50/EC50 (rgRSV224 virus) | pEC50 (rgRSV224 virus; [4]) |
| --- | --- | --- | --- | --- | --- |
| O=c1n(Cc2cc3cc(Br)ccc3n2CCCCO)c2cnccc2n1C1CC1 [Compound 4, 3-((5-bromo-1-(4-hydroxybutyl)-1H-indol-2-yl)methyl)-1-cyclopropyl-1H-imidazo[4,5-c]pyridin-2(3H)-one] | 8.95 | 48700 nM | – | – | – |
| CS(=O)(=O)CCCn1c(Cn2c(=O)n(C3CC3)c3ccncc32)cc2ccccc21 [Compound P25] | – | – | – | >10945 | 8.04 |
| N#CCCCn1c(Cn2c(=O)n(C3CC3)c3ccncc32)cc2cc(Cl)ccc21 [Compound P33] | – | – | – | 190625 | 9.58 |
| O=c1n(Cc2cc3cc(F)ccc3n2CCCCF)c2cnccc2n1C1CC1 [Compound P29] | – | – | – | 2149 | 7.86 |
| O=c1n(Cc2cc3cc(Cl)ccc3n2CCCC(F)(F)F)c2cnccc2n1C1COC1 [Compound P67] | – | – | – | >85461 | 8.90 |
| O=c1n(Cc2cc3cc(F)ccc3n2CCCCF)c2ccccc2n1C1CC1 [Compound P34] | – | – | – | >398 | 6.60 |
| CS(=O)(=O)CCCn1c(Cn2c(=O)n(C3CC3)c3ccccc32)cc2ccccc21 [Compound P28] | – | – | – | 184 | 6.46 |
| CS(=O)(=O)CCCn1c(Cn2c(=O)n(C3CC3)c3ccncc32)cc2cc(F)ccc21 [Compound P20] | – | – | – | 15206 | 8.39 |
| CS(=O)(=O)CCCn1c(Cn2c(=O)n(C3CC3)c3ccccc32)cc2cc(Cl)ccc21 [Compound P40] | – | – | – | >29923 | 8.53 |
| CS(=O)(=O)CCCn1c(Cn2c(=O)n(C3CC3)c3ccccc32)cc2cc(Br)ccc21 [Compound P21] | – | – | – | 6322 | 8.41 |
| CS(=O)(=O)CCCn1c(Cn2c(=O)n(CC(F)(F)F)c3ccc(F)cc32)cc2cc(Cl)ccc21 [Compound P50] | – | – | – | 5176 | 8.32 |
| CC(C)(O)CCCn1c(Cn2c(=O)n(CC(F)(F)F)c3ccncc32)cc2cc(Cl)ccc21 [Compound P74] | – | – | – | 15708 | 8.50 |
| O=c1n(Cc2cc3cc(Cl)ccc3n2CCCN2CCOCC2)c2cnccc2n1C1CC1 [Compound P58] | – | – | – | 7416 | 8.24 |
| NC(=O)c1c(Cn2c(=O)n(C3CC3)c3ccc(F)cc32)n(CCCC(F)(F)F)c2ccc(Cl)cc12 [Compound P65] | – | – | – | >45348 | 8.96 |
| CS(=O)(=O)CCCn1c(Cn2c(=O)n(C3CC3)c3ccncc32)cc2cc(C(F)(F)F)ccc21 [Compound P23] | – | – | – | 6557 | 8.13 |
| NC(=O)c1c(Cn2c(=O)n(C3CC3)c3ccc(F)cc32)n(CCCCF)c2ccc(Cl)cc12 [Compound P63] | – | – | – | >89869 | 8.95 |
| N#CCCCn1c(Cn2c(=O)n(C3CC3)c3ccccc32)cc2cc(Cl)ccc21 [Compound P35] | – | – | – | 5353 | 8.50 |
| CS(=O)(=O)CCCn1c(Cn2c(=O)n(C3COC3)c3ccncc32)cc2ccccc21 [Compound P24] | – | – | – | >3065 | 7.49 |
| O=C(NC1CC1)c1c(Cn2c(=O)n(C3CC3)c3ccncc32)n(CCCC(F)(F)F)c2ccc(Cl)cc12 [Compound P68] | – | – | – | 249 | 7.90 |
| O=c1n(Cc2cc3cc(Cl)ccc3n2CCCCF)c2cnccc2n1C1COC1 [Compound P66] | – | – | – | 21581 | 8.90 |
| CS(=O)(=O)CCCn1c(Cn2c(=O)n(CC(F)(F)F)c3ccncc32)cc2cc(Cl)ccc21 [Compound P55] | – | – | – | >258982 | > 9.80 |
